This is an account of results in patent publication US10221163B2 (priority 2015, dated 2019).

Data set [1] concerns Pseudomonas aeruginosa efflux+ (MB9798), IMP-1. The data set is classed as cell-based. The settings on record: concentration restoring susceptibility to imipenem at 2 μg/mL in the presence of a class A, C, D serine β-lactamase inhibitor closely related to relebactam. The method, boiled down:
(§1)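 PAO1 pair, broth microdilution; fixed β-lactam (imipenem/ceftazidime) at ~CLSI breakpoint + fixed class A/C BLI for AmpC; serial MBLi titration; endpoint = MBLi conc. restoring susceptibility; MB9798:MB9799 ratio = efflux liability.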

Data set [2] concerns the target IMP-1 (Serratia marcescens, UniProt P52699). Description: biochemical. The class given is biochemical. The settings on record: fluorescence assay, CCF2-FA substrate, 2 pM enzyme, 2 hours at 25° C., read-out: IMP-1 IC50. The method, boiled down:
(§2)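 Test compound, enzyme and the FRET cephalosporin substrate CCF2-FA are incubated together for 2 hours at 25° C. Cleavage is followed by fluorescence, and IC50 values are derived from semi-logarithmic inhibition curves fitted with a 4-parameter model.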

For data set [3], the target named is NDM-1 (Klebsiella pneumoniae, UniProt C7C422). Nature of the data set: biochemical. The class given is biochemical. Conditions: fluorescence assay, CCF2-FA substrate, 1 pM enzyme, 2 hours at 25° C., read-out: NDM-1 IC50. The method in brief:
as §2

Data set [4] addresses VIM-1 (Pseudomonas aeruginosa (strain ATCC 15692 / DSM 22644 / CIP 104116 / JCM 14847 / LMG 12228 / 1C / PRS 101 / PAO1), UniProt A0A0F7KYQ8). Description: biochemical. Conditions: CCF2-FA substrate, 30 pM enzyme, 2 hours at 25° C. The method in brief:
as §2

Data set [5] relates to Pseudomonas aeruginosa MB9798 vs MB9799. The settings on record: ratio MITC95 PA_9798/MITC95 PA_9799. The method in brief:
as §1

Data set [6] relates to Klebsiella pneumoniae expressing VIM-1 (IHMA599644). The class given is cell-based. The settings on record: for Klebsiella pneumoniae expressing VIM-1 (IHMA599644) MITC95: with imipenem 1 μg/ml, 95% inhibition of bacterial growth; for Klebsiella pneumoniae MITC95: VIM-1 strain IHMA599644, with imipenem 1 μg/ml, 95% inhibition of growth. The method in brief:
(§3)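 Colonies grown overnight on blood agar at 35° C were suspended in saline, diluted 1:100 into 1.1×CAMHB and dispensed. Imipenem was added to 1 μg/ml, then test compound. After 22 hours to 24 hours at 35° C, absorbance was recorded.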

Data set [7] relates to Escherichia coli expressing NDM-1 (CLB30005, CLB30016). The data set is classed as cell-based. Conditions: with imipenem 1 μg/ml; for Escherichia coli expressing NDM-1 (CLB30016) MITC95: 95% inhibition of bacterial growth; for Escherichia coli MITC95: NDM-1 strain, 95% inhibition of growth. The method, boiled down: as §3
In data set [8] the test system is Serratia marcescens expressing IMP-1 (CL5741). The data set is classed as cell-based. Conditions: for Serratia marcescens expressing IMP-1 (CL5741) MITC95: with imipenem 1 μg/ml, 95% inhibition of bacterial growth; for Serratia marcescens MITC95: IMP-1 strain CL5741, with imipenem 1 μg/ml, 95% inhibition of growth. The method, boiled down: as §3
Data set [9] concerns Pseudomonas aeruginosa efflux− (MB9799), IMP-1. The class given is cell-based. Conditions: concentration restoring susceptibility to imipenem at 2 μg/mL in the presence of a class A, C, D serine β-lactamase inhibitor closely related to relebactam. The method in brief:
as §1

[10] abbreviates: fluorescence assay, read-out: VIM-1 IC50.

Where two headings read alike, the source gives them in different places.

Sequence of NDM-1 (C7C422 whole entry, looked up, species assumed): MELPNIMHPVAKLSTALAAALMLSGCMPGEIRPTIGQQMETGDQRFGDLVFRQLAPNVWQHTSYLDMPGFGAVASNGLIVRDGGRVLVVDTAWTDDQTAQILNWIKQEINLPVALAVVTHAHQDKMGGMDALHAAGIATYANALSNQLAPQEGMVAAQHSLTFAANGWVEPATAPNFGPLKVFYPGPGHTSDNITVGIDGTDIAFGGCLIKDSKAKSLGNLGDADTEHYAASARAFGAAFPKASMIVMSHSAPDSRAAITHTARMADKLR
Sequence of IMP-1 (P52699 whole entry, looked up, species assumed): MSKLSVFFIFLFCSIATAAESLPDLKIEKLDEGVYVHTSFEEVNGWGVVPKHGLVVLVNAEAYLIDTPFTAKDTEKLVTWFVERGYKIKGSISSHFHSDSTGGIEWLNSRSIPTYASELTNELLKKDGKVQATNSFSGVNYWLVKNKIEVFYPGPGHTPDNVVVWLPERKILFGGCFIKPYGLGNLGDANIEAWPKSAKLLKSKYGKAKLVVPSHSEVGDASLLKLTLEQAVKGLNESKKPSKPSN

By IC50 is commonly meant the concentration that inhibits the measured activity by half. In the case of `NC[C@@H]1CCN(S(=O)(=O)c2ccc(-c3cccc4sc(N)nc34)c(-c3nnn[nH]3)c2S(N)(=O)=O)C1.O=C(O)C(F)(F)F` [Example 94, (S)-(1-((4-(2-aminobenzo[d]thiazol-4-yl)-2-sulfamoyl-3-(1H-tetrazol-5-yl)phenyl)sulfonyl)pyrrolidin-3-yl)methanaminium 2,2,2-trifluoroacetate], in data set [1], the “P. aeruginosa expressing IMP-1, efflux + (MB9798) MITC95” value was 1.563 µM. In addition, the IC50 in [2] (2,2,2-trifluoroacetate) was determined as 0.73 nM; in data set [3] (2,2,2-trifluoroacetate) it was 0.574 nM; in data set [4] (VIM-1 IC50, fluorescence assay), 0.973 nM. In data set [5], the Efflux ratio was found to be 1.00. Moreover, the “Klebsiella pneumoniae expressing VIM-1 (IHMA599644) MITC95” value in data set [6] was found to be 3.125 µM. In data set [7], the “Escherichia coli expressing NDM-1 (CLB30016) MITC95” value was found to be 3.646 µM. Further, the “Serratia marcescens expressing IMP-1 (CL5741) MITC95” value in data set [8] stood at 2.083 µM. For the same molecule, in data set [9], the “P. aeruginosa expressing IMP-1, efflux − (MB9799) MITC95” value is 1.563 µM.

As for `NCCNS(=O)(=O)c1ccc(-c2cccc(NC[C@H](N)CO)c2)c(-c2nn[nH]n2)c1S(N)(=O)=O` [Example 350, (S)-3′-((2-amino-3-hydroxypropyl)amino)-N4-(2-aminoethyl)-2-(2H-tetrazol-5-yl)-[1,1′-biphenyl]-3,4-disulfonamide], the “P. aeruginosa expressing IMP-1, efflux + (MB9798) MITC95” value in [1] is 0.7813 µM. The IC50 in [2] turned out to be 4.4 nM; in data set [3], 1.72 nM; in data set [4] (setting [10]), 0.412 nM. Moreover, in data set [5], the Efflux ratio was 1.00. For the same molecule, the “Klebsiella pneumoniae MITC95” value in data set [6] is 0.7813 µM. In addition, the “Escherichia coli MITC95” value in data set [7] is 0.7813 µM. In addition, in data set [8], the “Serratia marcescens MITC95” value stood at 0.7813 µM. Also, the “P. aeruginosa expressing IMP-1, efflux − (MB9799) MITC95” value in data set [9] is 0.7813 µM.

In the case of `NCCNS(=O)(=O)c1ccc(-c2cccc(NC[C@@H](O)CN)c2)c(-c2nn[nH]n2)c1S(N)(=O)=O` [Example 352, (S)-3′-((3-amino-2-hydroxypropyl)amino)N4-(2-aminoethyl)-2-(2H-tetrazol-5-yl)-[1,1′-biphenyl]-3,4-disulfonamide], in data set [1], the “P. aeruginosa expressing IMP-1, efflux + (MB9798) MITC95” value was 1.563 µM. Moreover, the IC50 was determined as 4.39 nM in data set [2]; 1.41 nM in [3]; 0.379 nM in data set [4] (VIM-1 IC50, fluorescence assay). The Efflux ratio in data set [5] is on record as 2.00. The “Klebsiella pneumoniae MITC95” value in [6] amounted to 1.563 µM. For the same molecule, the “Escherichia coli MITC95” value in data set [7] turned out to be 0.7813 µM. In addition, the “Serratia marcescens MITC95” value in [8] came out at 1.563 µM. Besides, in [9], the “P. aeruginosa expressing IMP-1, efflux − (MB9799) MITC95” value came to 0.7813 µM.

On to `Nc1nc2c(-c3ccc(S(=O)(=O)NCCC(N)CF)c(S(N)(=O)=O)c3-c3nnn[nH]3)cccc2s1.O=CO` (stereo not drawn) [Example 123, 4-(4-(2-aminobenzo[d]thiazol-4-yl)-2-sulfamoyl-3-(1H-tetrazol-5-yl)phenylsulfonamido)-1-fluorobutan-2-aminium formate], for which, in data set [1], the “P. aeruginosa expressing IMP-1, efflux + (MB9798) MITC95” value is 1.563 µM. Moreover, the IC50 is 0.219 nM in data set [2]; 0.036 nM in data set [3]; 0.189 nM in data set [4] (VIM-1 IC50, fluorescence assay). Also, the Efflux ratio in data set [5] was 1.00. Besides, the “Klebsiella pneumoniae expressing VIM-1 (IHMA599644) MITC95” value in data set [6] amounted to 3.125 µM. Further, in [7], the “Escherichia coli expressing NDM-1 (CLB30016) MITC95” value turned out to be 1.563 µM. Also, the “Serratia marcescens expressing IMP-1 (CL5741) MITC95” value in data set [8] came out at 1.563 µM. In addition, the “P. aeruginosa expressing IMP-1, efflux − (MB9799) MITC95” value in data set [9] turned out to be 1.563 µM.

On to `NCCNS(=O)(=O)c1ccc(-c2cccc3nonc23)c(-c2nn[nH]n2)c1S(N)(=O)=O` [Example 239], for which the “P. aeruginosa expressing IMP-1, efflux + (MB9798) MITC95” value in data set [1] was 6.25 µM. For the same molecule, the IC50 was 1.06 nM in data set [2], 0.439 nM in data set [3] and 0.113 nM in [4] (setting [10]). In addition, the Efflux ratio in data set [5] amounted to 8.00. Further, the “Klebsiella pneumoniae expressing VIM-1 (IHMA599644) MITC95” value in data set [6] was found to be 3.125 µM. Besides, the “Escherichia coli expressing NDM-1 (CLB30016) MITC95” value in data set [7] worked out at 0.7813 µM. In data set [8], the “Serratia marcescens expressing IMP-1 (CL5741) MITC95” value amounted to 1.563 µM. Moreover, in data set [9], the “P. aeruginosa expressing IMP-1, efflux − (MB9799) MITC95” value stood at 0.7813 µM.
